# Measured values: patent publication US20240376411A1, “IMPROVED PERFUME COMPOSITIONS COMPRISING SULFUR-CONTAINING PRO-FRAGRANCE COMPOUNDS” (FIRMENICH SA, priority 2021, published 2024)
# Assay: Identification of perfumery raw materials that promote hydrogen sulfide formation (1:1 w/w mix, storage, smell)
# Assay type: physicochemical
# Conditions: raw materials named in Example 2 as not promoting; test conditions not repeated there
# Description: In other words, each of the perfumery raw materials being present in the perfume composition is capable of inducing a hydrogen sulfide smell when being mixed individually in a 1:1 (w/w) ratio with the sulfur-containing pro-fragrance compound and being stored for 2 weeks at 50° C. Preferably, a hydrogen sulfide smell is induced when being mixed in a 1:1 (w/w) ratio with 3-(dodecylthio)-1-(2,6,6-trimethylcyclohex-3-en-1-yl) butan-1-one (HaloScent® D) and stored for 2 weeks at 50° C. Preferably, the mixing is carried out in a 10 mL glass jar. The perfumery raw materials may be used as such or may be dissolved in a solvent, for example at a concentration of from 10% to 50%.
# Perfumery raw materials that promote the formation of hydrogen sulfide from 3-(dodecylthio)-1-(2,6,6-trimethylcyclohex-3-en-1-yl) butan-1-one (HaloScent® D) have been identified by mixing individual perfumery raw materials with 3-(dodecylthio)-1-(2,6,6-trimethylcyclohex-3-en-1-yl) butan-1-one (HaloScent® D) in a 1:1 (w/w) ratio in a 10 mL glass jar and storing said mixture for 2 weeks at 50° C. In case a hydrogen sulfide smell (similar to rotten egg odor) could be perceived after 2 weeks, it has been concluded that the perfumery raw material promotes the formation of hydrogen sulfide from 3-(dodecylthio)-1-(2,6,6-trimethylcyclohex-3-en-1-yl) butan-1-one (HaloScent® D).
row,Molecule,promotion of formation of hydrogen sulfide from HaloScent® D
1,"CC(C)CCCC(C)CCO (racemic) [(+/−)-3,7-dimethyl-1-octanol]",do not promote the formation of hydrogen sulfide
2,"CC1C(C)(C)C2=C(C(=O)CCC2)C1(C)C (stereo not shown) [1,1,2,3,3-pentamethyl-1,2,3,5,6,7-hexahydro-4H-inden-4-one]",do not promote the formation of hydrogen sulfide
3,"CC(=O)OC(C)(C)Cc1ccccc1 [1,1-dimethyl-2-phenylethyl acetate]",do not promote the formation of hydrogen sulfide
4,"CCCC(=O)OC(C)(C)Cc1ccccc1 [1,1-dimethyl-2-phenylethyl butanoate]",do not promote the formation of hydrogen sulfide
5,"c1ccc(Oc2ccccc2)cc1 [1,1′-oxydibenzene]",do not promote the formation of hydrogen sulfide
6,"O=C1CCCCCCCCCCCC(=O)OCCO1 [1,4-dioxacycloheptadecane-5,17-dione]",do not promote the formation of hydrogen sulfide
7,COc1ccc(C)cc1 [1-methoxy-4-methylbenzene],do not promote the formation of hydrogen sulfide
8,C=C(OC(C)=O)c1ccccc1 [1-phenylvinyl acetate],do not promote the formation of hydrogen sulfide
9,C=CCc1ccc(O)c(OC)c1 [2-methoxy-4-(2-propen-1-yl) phenol],do not promote the formation of hydrogen sulfide
10,C/C=C/c1ccc(O)c(OC)c1 [2-methoxy-4-[(1E)-1-propen-1-yl]phenol],do not promote the formation of hydrogen sulfide
11,CCCC(=O)OCC(C)CC (stereo not shown) [2-methylbutyl butyrate],do not promote the formation of hydrogen sulfide
12,CCCC(=O)OCCC(C)C [3-methylbutyl butyrate],do not promote the formation of hydrogen sulfide
13,CC(=O)OC1CCC(C(C)(C)C)CC1 (stereo not shown) [4-(2-methyl-2-propanyl)cyclohexyl acetate],do not promote the formation of hydrogen sulfide
14,"CC(=O)O[C@@H]1CC2CC[C@]1(C)C2(C)C [(1R,2R)-1,7,7-trimethyl-bicyclo[2.2.1]hept-2-yl acetate]",do not promote the formation of hydrogen sulfide
15,"COC(Cc1ccccc1)OC [(2,2-dimethoxyethyl)benzene]",do not promote the formation of hydrogen sulfide
16,CC/C=C\CCO [(3Z)-3-hexen-1-ol],do not promote the formation of hydrogen sulfide
17,CC/C=C\CCOC(=O)OC [(3Z)-hex-3-en-1-yl methyl carbonate],do not promote the formation of hydrogen sulfide
18,CC/C=C\CCOC(C)=O [(Z)-3-hexenyl acetate],do not promote the formation of hydrogen sulfide
19,CC(=O)c1ccccc1 [acetophenone],do not promote the formation of hydrogen sulfide
20,C=CCOC(=O)COC1CCCCC1 [allyl (cyclohexyloxy)acetate],do not promote the formation of hydrogen sulfide
21,C=CCOC(=O)CCCCC [allyl hexanoate],do not promote the formation of hydrogen sulfide
22,CCOC(=O)/C=C/c1ccccc1 [ethyl (E)-3-phenyl-2-propenoate],do not promote the formation of hydrogen sulfide
23,CCCC(=O)OCC [ethyl butanoate],do not promote the formation of hydrogen sulfide
24,CCCCCCOC(C)=O [hexyl acetate],do not promote the formation of hydrogen sulfide
25,COC(=O)c1ccccc1O [methyl 2-hydroxybenzoate],do not promote the formation of hydrogen sulfide
26,"CC(=O)OC1CC2CC1C1CC=CC21 (stereo not shown) [tricyclo[5.2.1.02,6]dec-¾-en-8-yl acetate]",do not promote the formation of hydrogen sulfide
27,allyl(⅔-methylbutoxy)acetate,do not promote the formation of hydrogen sulfide

# Assay: logP above 4 (octanol-water partition coefficient)
# Conditions: Yes/No
row,logP > 4,Molecule
1,Yes,3-methyl-4/5-cyclopentadecen-1-one
2,Yes,"CC1(C)CCC[C@]2(C)[C@H]3CCO[C@]3(C)CC[C@@H]12 (racemic) [(3aRS,5aSR,9aSR,9bRS)-3a,6,6,9a-tetramethyldodecahydronaphtho[2,1-b]furan]"
3,Yes,CCC(O)COC1CCCCC1C(C)(C)C (racemic) [(+/−)-1-(2-tert-butyl-1-cyclohexyloxy)-2-butanol]
4,No,"Cc1ccc2c(c1)CC(C)(CO)C2 (racemic) [(+/−)-2,5-dimethyl-2,3-dihydro-1H-inden-2-yl)methanol]"
5,Yes,"CCC(=CCC1CC=C(C)C1(C)C)CO (racemic) [(+/−)-2-ethyl-4-(2,2,3-trimethyl-3-cyclopenten-1-yl)-2-buten-1-ol]"
6,No,CC(CO)c1ccccc1 (racemic) [(+/−)-2-phenyl-1-propanol]
7,No,"C=CC(C)(O)CCC=C(C)C (racemic) [(+/−)-3,7-dimethyl-1,6-octadien-3-ol]"
8,No,"CCC(C)(O)CCCC(C)C (racemic) [(+/−)-3,7-dimethyl-3-octanol]"
9,No,CC1=CCC(C(C)(C)O)CC1 (racemic) [(+/−)-alpha-terpineol]
10,No,"C=CC(C)CCCC(C)(C)O (racemic) [(+−)-2,6-dimethyl-7-octen-2-ol]"
11,No,"CCCCC[C@H]1C(=O)CC[C@@H]1CC(=O)OC (racemic) [methyl 2-((1RS,2RS)-3-oxo-2-pentylcyclopentyl)acetate]"
12,No,CC(=O)c1ccc2ccccc2c1 [1-(2-naphthyl)ethanone]
13,Yes,"CC(=O)C1(C)CC2=C(CCCC2(C)C)CC1C (stereo not shown) [1-(octahydro-2,3,8,8-tetramethyl-2-naphtalenyl)-1-ethanone]"
14,No,CCOc1ccc2ccccc2c1 [2-ethoxynaphthalene]
15,No,OCCc1ccccc1 [2-phenylethanol]
16,No,CC(=O)CCc1ccc(O)cc1 [4-(4-hydroxyphenyl)-2-butanone]
17,Yes,CC/C=C\CCOC(=O)c1ccccc1O [(3Z)-3-hexen-1-yl salicylate]
18,Yes,"CC1=CC[C@H](/C=C/C(C)(C)C(C)O)C1(C)C (stereo partly drawn) [(4E)-3,3-dimethyl-5-[(1R)-2,2,3-trimethyl-3-cyclopenten-1-yl]-4-penten-2-ol]"
19,Yes,"CCC(=O)OCC(C)(C)O[C@@H](C)[C@@H]1CCCC(C)(C)C1 [(+)-2-{(1S)-1-[(1R)-3,3-dimethylcyclohexyl]ethoxy}-2-methylpropyl propionate]"
20,No,"CC(C)=CCC[C@@H](C)CC#N [(−)-(R)-3,7-dimethyl-6-octenenitrile]"
21,Yes,C=CCOC(=O)CCC1CCCCC1 [allyl 3-cyclohexylpropanoate]
22,No,N#CC(=C1CCCCC1)c1ccccc1 [cyclohexylidene(phenyl)acetonitrile]
23,Yes,"tricyclo[5.2.1.0^2,6]dec-3/4-en-8-yl propanoate"

row,Molecule,logP > 4
1,"C=CC(C)(CCC=C(C)C)OC(C)=O (racemic) [(+/−)-1,5-dimethyl-1-vinyl-4-hexenyl acetate]",Yes
2,c1ccc2[nH]ccc2c1 [Indole],No
